The values that follow come from patent publication US10758534B2 (Vertex Pharmaceuticals Incorporated, priority 2014, dated 2020).

One may read the EC30 as the concentration needed for an effect of 30%.

The target in one assay is T1, F508del (Homo sapiens, UniProt P13569, DEL508-508).
T1 construct: expressed in transfected cells
T1 sequence (P13569 with tags, fused parts or gaps DEL508-508): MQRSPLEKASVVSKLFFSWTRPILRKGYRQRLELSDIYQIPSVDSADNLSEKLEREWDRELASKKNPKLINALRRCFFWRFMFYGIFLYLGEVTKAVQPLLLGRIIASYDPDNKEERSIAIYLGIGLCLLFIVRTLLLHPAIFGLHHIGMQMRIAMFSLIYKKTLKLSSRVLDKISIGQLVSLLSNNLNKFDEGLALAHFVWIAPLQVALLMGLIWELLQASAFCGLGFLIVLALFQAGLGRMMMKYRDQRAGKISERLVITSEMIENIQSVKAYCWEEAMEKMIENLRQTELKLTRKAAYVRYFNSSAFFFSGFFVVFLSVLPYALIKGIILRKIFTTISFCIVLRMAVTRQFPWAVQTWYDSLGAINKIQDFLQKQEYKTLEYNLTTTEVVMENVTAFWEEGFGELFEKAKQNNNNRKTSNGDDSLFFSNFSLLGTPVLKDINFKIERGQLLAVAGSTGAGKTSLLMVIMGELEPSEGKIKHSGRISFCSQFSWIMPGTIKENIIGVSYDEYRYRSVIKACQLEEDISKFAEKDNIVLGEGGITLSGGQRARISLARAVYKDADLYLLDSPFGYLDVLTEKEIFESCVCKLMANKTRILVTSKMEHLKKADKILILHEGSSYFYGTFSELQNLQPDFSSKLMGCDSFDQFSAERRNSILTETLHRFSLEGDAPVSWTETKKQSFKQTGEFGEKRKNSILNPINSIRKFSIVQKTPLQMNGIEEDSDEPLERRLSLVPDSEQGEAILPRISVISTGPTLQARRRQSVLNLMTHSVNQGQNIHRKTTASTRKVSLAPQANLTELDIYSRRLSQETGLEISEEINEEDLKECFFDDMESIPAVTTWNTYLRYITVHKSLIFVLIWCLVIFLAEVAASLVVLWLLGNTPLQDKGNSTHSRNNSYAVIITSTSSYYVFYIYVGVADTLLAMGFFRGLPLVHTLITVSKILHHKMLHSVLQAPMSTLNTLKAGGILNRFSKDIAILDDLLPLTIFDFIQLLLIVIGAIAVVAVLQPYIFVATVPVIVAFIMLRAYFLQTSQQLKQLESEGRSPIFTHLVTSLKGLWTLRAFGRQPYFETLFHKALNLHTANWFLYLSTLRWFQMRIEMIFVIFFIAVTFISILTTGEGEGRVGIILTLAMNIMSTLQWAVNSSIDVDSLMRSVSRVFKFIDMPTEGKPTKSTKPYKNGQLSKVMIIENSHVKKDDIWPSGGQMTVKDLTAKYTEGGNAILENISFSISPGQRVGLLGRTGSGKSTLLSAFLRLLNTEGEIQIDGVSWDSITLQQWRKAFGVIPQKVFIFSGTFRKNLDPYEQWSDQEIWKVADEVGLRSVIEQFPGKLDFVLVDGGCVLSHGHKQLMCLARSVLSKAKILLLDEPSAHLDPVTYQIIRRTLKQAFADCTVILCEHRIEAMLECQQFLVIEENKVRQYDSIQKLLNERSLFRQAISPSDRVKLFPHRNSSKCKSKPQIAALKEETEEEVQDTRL
Description: Protocol 2: FRET membrane potential optical assay (VIPR), identification of correction compounds. Format: cell-based. To be noted: F508del CFTR modulator activity; compounds of Table 1; read-out: EC30. In a few lines: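 NIH3T3 mouse fibroblasts stably expressing F508del-CFTR incubated with compound 16 h at 37 °C in serum-free medium, then loaded with CC2-DMPE/DiSBAC2(3) FRET dyes. Channel activated with 10 μM forskolin plus 20 μM genistein in Cl⁻-free (gluconate) bath; depolarisation from Cl⁻ efflux read on VIPR II.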
In the case of `C[C@@H]1CN(c2nc(-c3ccc(F)cc3F)ccc2C(=O)NS(=O)(=O)c2cccnc2N)C(C)(C)C1` [Compound 2447, N-[(2-amino-3-pyridyl)sulfonyl]-6-(2,4-difluorophenyl)-2-[(4S)-2,2,4-trimethylpyrrolidin-1-yl]pyridine-3-carboxamide], the EC30 was less than 3000 nM.
The same measure, in the same setting: as for `CCOc1ccc(-c2ccc(C(=O)NS(=O)(=O)c3cccnc3N)c(N3C[C@@H](C)CC3(C)C)n2)cc1F` [Compound 2403, N-[(2-amino-3-pyridyl)sulfonyl]-6-(4-ethoxy-3-fluoro-phenyl)-2-[(4S)-2,2,4-trimethylpyrrolidin-1-yl]pyridine-3-carboxamide], the figure is less than 3000 nM; as for `CCOc1nn(-c2ccc(C(=O)NS(=O)(=O)c3cccnc3N)c(N3C[C@@H](C)CC3(C)C)n2)cc1C` [Compound 2248, N-[(2-amino-3-pyridyl)sulfonyl]-6-(3-ethoxy-4-methyl-pyrazol-1-yl)-2-[(4S)-2,2,4-trimethylpyrrolidin-1-yl]pyridine-3-carboxamide], less than 3000 nM.
For `CC1CN(c2nc(OC(C)C)c(F)cc2C(=O)NS(=O)(=O)c2cccc(N)n2)C(C)(C)C1` (stereo not shown) [Compound 2230, N-[(6-amino-2-pyridyl)sulfonyl]-5-fluoro-6-isopropoxy-2-(2,2,4-trimethylpyrrolidin-1-yl)pyridine-3-carboxamide], the EC30 is less than 3000 nM.
The same measure, in the same setting: as for `CC(C)COc1cc(F)cc(-c2ccc(C(=O)NS(=O)(=O)c3cccc(N)n3)c(N3CCC(C)C(C)C3)n2)c1` (single isomer, unassigned) [Compound 2062, N-[(6-amino-2-pyridyl)sulfonyl]-2-(3,4-dimethyl-1-piperidyl)-6-(3-fluoro-5-isobutoxy-phenyl)pyridine-3-carboxamide], the figure is less than 3000 nM; as for `C[C@@H]1CN(c2nc(-c3ccccc3O)ccc2C(=O)NS(=O)(=O)c2cccc(N)n2)C(C)(C)C1` [Compound 2555, N-[(6-amino-2-pyridyl)sulfonyl]-6-(2-hydroxyphenyl)-2-[(4S)-2,2,4-trimethylpyrrolidin-1-yl]pyridine-3-carboxamide], less than 3000 nM; as for `CC(C)[C@@H](C)Oc1nc(N2C[C@@H](C)CC2(C)C)c(C(=O)NS(=O)(=O)c2cccc(N)n2)cc1F` [Compound 2020, N-[(6-amino-2-pyridyl)sulfonyl]-6-[(1R)-1,2-dimethylpropoxy]-5-fluoro-2-[(4S)-2,2,4-trimethylpyrrolidin-1-yl]pyridine-3-carboxamide], less than 3000 nM.
On to `Cc1ccc(-c2ccc(C(=O)NS(=O)(=O)c3ccc[nH]c3=O)c(N3C[C@@H](C)CC3(C)C)n2)cc1C` [Compound 2154, 6-(3,4-dimethylphenyl)-N-[(2-oxo-1H-pyridin-3-yl)sulfonyl]-2-[(4S)-2,2,4-trimethylpyrrolidin-1-yl]pyridine-3-carboxamide], for which the EC30 is less than 3000 nM.
Same read-out and setting: the same measure for `CC1CN(c2ncccc2C(=O)NS(=O)(=O)c2cccc(NCC(F)F)n2)C(C)(C)C1` (stereo not shown) [Compound 2350, N—[[6-(2,2-difluoroethylamino)-2-pyridyl]sulfonyl]-2-(2,2,4-trimethylpyrrolidin-1-yl)pyridine-3-carboxamide]: 3000 to 10000 nM; for `CC1CN(c2ncccc2C(=O)NS(=O)(=O)c2cccc(Nc3ccc(Cl)cn3)n2)C(C)(C)C1` (stereo not shown) [Compound 2656, N—[[6-[(5-chloro-2-pyridyl)amino]-2-pyridyl]sulfonyl]-2-(2,2,4-trimethylpyrrolidin-1-yl)pyridine-3-carboxamide]: less than 3000 nM; for `CC1CN(c2ncc(-c3ccc(Cl)cc3)cc2C(=O)NS(=O)(=O)c2cccc(N)n2)C(C)(C)C1` (stereo not shown) [Compound 2399, N-[(6-amino-2-pyridyl)sulfonyl]-5-(4-chlorophenyl)-2-(2,2,4-trimethylpyrrolidin-1-yl)pyridine-3-carboxamide]: less than 3000 nM.
As to `C[C@@H]1CN(c2nc(-n3ccc(-c4ccccn4)n3)ccc2C(=O)NS(=O)(=O)C2CC2)C(C)(C)C1` [Compound 2711], the EC30 was in the range of 3000 to 10000 nM.
As for `COc1cccc(-c2cnc(N3CC(C)CC3(C)C)c(C(=O)NS(=O)(=O)c3cccc(N)n3)c2)c1` (stereo not shown) [Compound 2031, N-[(6-amino-2-pyridyl)sulfonyl]-5-(3-methoxyphenyl)-2-(2,2,4-trimethylpyrrolidin-1-yl)pyridine-3-carboxamide], the EC30 was less than 3000 nM.
As to `CC1CN(c2ncccc2C(=O)NS(=O)(=O)c2cccc(OCc3ccc(F)cc3F)n2)C(C)(C)C1` (stereo not shown) [Compound 2099, N—[[6-[(2,4-difluorophenyl)methoxy]-2-pyridyl]sulfonyl]-2-(2,2,4-trimethylpyrrolidin-1-yl)pyridine-3-carboxamide], the EC30 was less than 3000 nM.
For the compound `C[C@@H]1CN(c2nc(C(C)(C)C)c(C3=CCN(C(=O)NC4CCCCC4)CC3)cc2C(=O)NS(=O)(=O)c2cccc(N)n2)C(C)(C)C1` [Compound 2520, N-[(6-amino-2-pyridyl)sulfonyl]-6-tert-butyl-5-[1-(cyclohexylcarbamoyl)-3,6-dihydro-2H-pyridin-4-yl]-2-[(4S)-2,2,4-trimethylpyrrolidin-1-yl]pyridine-3-carboxamide], the EC30 is 3000 to 10000 nM.
Consider `C[C@@H]1CN(c2nc(-c3ccc4[nH]ccc4c3)ccc2C(=O)NS(=O)(=O)c2cccnc2N)C(C)(C)C1` [Compound 2125, N-[(2-amino-3-pyridyl)sulfonyl]-6-(1H-indol-5-yl)-2-[(4S)-2,2,4-trimethylpyrrolidin-1-yl]pyridine-3-carboxamide], for which the EC30 was less than 3000 nM.
As for `Cc1cc(C)cc(-c2cnc(N3CC(C)CC3(C)C)c(C(=O)NS(=O)(=O)c3cccc(N)n3)c2)c1` (stereo not shown) [Compound 2093, N-[(6-amino-2-pyridyl)sulfonyl]-5-(3,5-dimethylphenyl)-2-(2,2,4-trimethylpyrrolidin-1-yl)pyridine-3-carboxamide], the EC30 was less than 3000 nM.
Same read-out and setting: the same measure for `COc1cccc(-c2ccc(C(=O)NS(=O)(=O)c3cccnc3N)c(N3C[C@@H](C)CC3(C)C)n2)c1O` [Compound 2158, N-[(2-amino-3-pyridyl)sulfonyl]-6-(2-hydroxy-3-methoxy-phenyl)-2-[(4S)-2,2,4-trimethylpyrrolidin-1-yl]pyridine-3-carboxamide]: 3000 to 10000 nM; for `C[C@@H]1CN(c2nc(-c3cc(F)cc(F)c3)ccc2C(=O)NS(=O)(=O)c2cccnc2N)C(C)(C)C1` [Compound 2272, N-[(2-amino-3-pyridyl)sulfonyl]-6-(3,5-difluorophenyl)-2-[(4S)-2,2,4-trimethylpyrrolidin-1-yl]pyridine-3-carboxamide]: less than 3000 nM.

Still in this assay, the particulars now being: Table 3; compounds of Table 1 as modulators of CFTR activity; protocol not stated.
On to `Cc1cc(C(=O)NS(=O)(=O)c2cccc(N)n2)c(N2[C@H](C)CC[C@@H]2C)nc1-c1cc(F)cc(OCC(C)C)c1` [Compound 483, N-[(6-amino-2-pyridyl)sulfonyl]-2-[(2R,5S)-2,5-dimethylpyrrolidin-1-yl]-6-(3-fluoro-5-isobutoxy-phenyl)-5-methyl-pyridine-3-carboxamide], for which the EC30 result was “+++ (“+++” means <3 uM)”.
Take `CC(C)COc1cc(F)cc(-c2ccc(C(=O)NS(=O)(=O)c3ccn[nH]3)c(N3CCCC4(COC4)C3)n2)c1` [Compound 519, 6-(3-fluoro-5-isobutoxy-phenyl)-2-(2-oxa-8-azaspiro[3.5]nonan-8-yl)-N-(1H-pyrazol-5-ylsulfonyl)pyridine-3-carboxamide]: the EC30 result is “++ (“++” means between 3 uM and 10 uM)”.
Regarding `Cc1cc(C)c(Oc2nc(-c3ccc(F)c(F)c3)ccc2C(=O)NS(=O)(=O)c2ccc[nH]c2=O)c(C)c1` [Compound 546, 6-(3,4-difluorophenyl)-N-[(2-oxo-1H-pyridin-3-yl)sulfonyl]-2-(2,4,6-trimethylphenoxy)pyridine-3-carboxamide], the EC30 result is “++ (“++” means between 3 uM and 10 uM)”.
Same read-out and setting: as for `Cc1cc(C)c(Cc2ccc(C(C)(C)C)nc2C(=O)NS(=O)(=O)c2cccc(N)c2)c(C)c1` [Compound 313, N-(3-aminophenyl)sulfonyl-6-tert-butyl-3-[(2,4,6-trimethylphenyl)methyl]pyridine-2-carboxamide], the entry is “+++ (“+++” means <3 uM)”; as for `CC(C)COc1cc(F)cc(-c2ccc(C(=O)NS(=O)(=O)c3cccc(N)n3)c(N3CCC(C(F)(F)F)C3(C)C)n2)c1` (stereo not shown) [Compound 780, N-[(6-amino-2-pyridyl)sulfonyl]-2-[2,2-dimethyl-3-(trifluoromethyl)pyrrolidin-1-yl]-6-(3-fluoro-5-isobutoxy-phenyl)pyridine-3-carboxamide], “+++ (“+++” means <3 uM)”; as for `Cc1cc(C)c(Cn2c(C(=O)NS(=O)(=O)c3cccc(N)c3)cc3ccc(C)cc32)c(C)c1` [Compound 62, N-(3-aminophenyl)sulfonyl-6-methyl-1-[(2,4,6-trimethylphenyl)methyl]indole-2-carboxamide], “+++ (“+++” means <3 uM)”.
Turning to `CC(C)COc1cc(F)cc(-c2ccc(C(=O)NS(=O)(=O)c3cccc(N)n3)c(N3CCCC3C)n2)c1` (stereo not shown) [Compound 479, N-[(6-amino-2-pyridyl)sulfonyl]-6-(3-fluoro-5-isobutoxy-phenyl)-2-(2-methylpyrrolidin-1-yl)pyridine-3-carboxamide], the EC30 entry is listed as “+++ (“+++” means <3 uM)”.
As for `C[C@@H]1CC[C@H](C)N1c1nc(-c2ccc(OC3CCC3)nc2)ccc1C(=O)NS(=O)(=O)c1cccc(N)n1` [Compound 428, N-[(6-amino-2-pyridyl)sulfonyl]-6-[6-(cyclobutoxy)-3-pyridyl]-2-[(2S,5R)-2,5-dimethylpyrrolidin-1-yl]pyridine-3-carboxamide], the EC30 result is “+++ (“+++” means <3 uM)”.
As for `COc1ccc(-c2cc(C(=O)NS(=O)(=O)c3ccccc3)n(Cc3c(C)cccc3C)n2)c(OC)c1` [Compound 135, N-(benzenesulfonyl)-5-(2,4-dimethoxyphenyl)-2-[(2,6-dimethylphenyl)methyl]pyrazole-3-carboxamide], the EC30 entry is “+++ (“+++” means <3 uM)”.
